Results taken from patent US12060366B2, “Bispecific degraders” (DANA-FARBER CANCER INSTITUTE, INC., priority 2018, dated 2024).

Experiments:
Type in all cases: cell-based
Conditions in all cases: Flip-In 293 cells stably expressing eGFP-bromodomain fusion and mCherry; compound titrated, 5 h incubation; FIG. 1, 2A, 2B
[1] = system: BRD2BD1, BRD2BD2; experiment: Degradation of eGFP-fused BRD2 bromodomains, eGFP/mCherry reporter flow cytometry
Description: (§1) BRD2BD1, BRD2BD2, BRD3BD1, BRD3BD2, BRD4BD1, and BRD4BD2 were subcloned into mammalian pcDNA5/FRT Vector (Ampicillin and Hygromycin B resistant) modified to contain MCS-eGFP-P2A-mCherry. Stable cell lines expressing eGFP-protein fusion and mCherry reporter were generated using Flip-In 293 system. Plasmid (0.3 μg) and pOG44 (4.7 μg) DNA were preincubated in 100 μL of Opti-MEM™ I (Gibco™, Life Technologies™) media containing 0.05 mg/ml Lipofectamine® 2000 (Invitrogen™) for 20 min and added to Flip-In 293 cells containing 1.9 ml of Dulbecco's Modified Eagle's medium (DMEM) (Gibco™, Life Technologies™) per well in a 6-well plate format (Falcon, 353046). […]
(§2) Cells were seeded at 30-50% confluency in either 24, 48 or 96 well plates (3524, 3548, 3596 respectively, Costar) a day before compound treatment. The inventive compound 3 was titrated and then was incubated with cells for 5 h following trypsinization and resuspension in DMEM, transferred into 96-well plates (353910, Falcon®) and analyzed by flow cytometer (Guava® easyCyte™ HT, Millipore™). Signal from at least 3000 events per well was acquired and the eGFP and mCherry florescence monitored. Data was analyzed using FlowJo® (FlowJo®, LCC). […] The eGFP protein abundance relative to mCherry was then quantified as a ten-fold amplified ratio for each individual cell using the formula: 10× eGFP/mCherry. […]

[2] = system: BRD3BD1, BRD3BD2; experiment: Degradation of eGFP-fused BRD3 bromodomains, eGFP/mCherry reporter flow cytometry
Description: as §1, §2

[3] = system: BRD4BD1, BRD4BD2; experiment: Degradation of eGFP-fused BRD4 bromodomains, eGFP/mCherry reporter flow cytometry
Description: as §1, §2

Structure (SMILES) | degradation of stably expressed bromodomains of BRD2 (GFP/mCherry ratio) [1] | degradation of stably expressed bromodomains of BRD3 (GFP/mCherry ratio) [2] | degradation of stably expressed bromodomains of BRD4 (GFP/mCherry ratio) [3]
COC(=O)C[C@@H]1N=C(c2ccc(Cl)cc2)c2c(sc(C(=O)NCCCCCCCCNc3cccc(C(=O)NC4CCC(=O)NC4=O)n3)c2C)-n2c(C)nnc21 (stereo partly drawn) [compound 1, methyl 2-((6S)-4-(4-chlorophenyl)-2-((8-((6-((2,6-dioxopiperidin-3-yl)carbamoyl)pyridin-2-yl)amino)octyl)carbamoyl)-3,9-dimethyl-6H-thieno[3,2-f][1,2,4]triazolo[4,3-a][1,4]diazepin-6-yl)acetate] | able to efficiently degrade | able to efficiently degrade | able to efficiently degrade
COC(=O)C[C@@H]1N=C(c2ccc(Cl)cc2)c2c(sc(C(=O)NCCCCCNc3cccnc3C(=O)NC3CCC(=O)NC3=O)c2C)-n2c(C)nnc21 (stereo partly drawn) [compound 3, methyl 2-((6S)-4-(4-chlorophenyl)-2-((5-((2-((2,6-dioxopiperidin-3-yl)carbamoyl)pyridin-3-yl)amino)pentyl)carbamoyl)-3,9-dimethyl-6H-thieno[3,2-f][1,2,4]triazolo[4,3-a][1,4]diazepin-6-yl)acetate] | – | – | only the first bromodomain of BRD4 is degraded
